Results published in the supplement of paper PMC10307832.

Experiments:
Test in all cases: relative viability (nuclei count vs DMSO), 5 days (fraction); higher = more cells survive
[1] = compound: CS(=O)(=O)CCNCc1ccc(-c2ccc3ncnc(Nc4ccc(OCc5cccc(F)c5)c(Cl)c4)c3c2)o1 [Lapatinib] + C[C@]1(O)C[C@@H](c2nc(-c3ccc4ccc(-c5ccccc5)nc4c3)c3c(N)nccn32)C1 [Linsitinib] (partner 1 µM)
Outline: (§1)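 For relative viability, nuclei counts in treated wells were divided by those in vehicle wells. Lung cancer cell lines had been pin-tool dosed in 1536-well plates the day after seeding and cultured for 5 days, then fixed and stained in one step (final 0.05% Triton X-100, 1% formaldehyde, 1 ug/ml Hoechst) and imaged at 4×. Doses were one drug alone or a fixed anchor-drug dose plus five library-drug doses (not always all listed) in √10 steps, and values are duplicate-plate medians.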

[2] = compound: CC1=NC=CC(=C1)C2=CC=C(C=C2)CC(=O)NC3=CC=C(C=C3)C4=CN=CC=C4 [Wnt-C59] + COc1cc2c(Oc3ccc(NC(=O)C4(C(=O)Nc5ccc(F)cc5)CC4)cc3F)ccnc2cc1OCCCN1CCOCC1 [Foretinib] (partner 0.25 µM)
Outline: as §1

[3] = compound: CS(=O)(=O)CCNCc1ccc(-c2ccc3ncnc(Nc4ccc(OCc5cccc(F)c5)c(Cl)c4)c3c2)o1 [Lapatinib] + Nc1ncn([C@H]2C[C@H](O)[C@@H](CO)O2)c(=O)n1 [Decitabine] (partner 2 µM)
Outline: as §1

[4] = compound: CC1=NC=CC(=C1)C2=CC=C(C=C2)CC(=O)NC3=CC=C(C=C3)C4=CN=CC=C4 [Wnt-C59] + CC1(C)CCC(c2ccc(Cl)cc2)=C(CN2CCN(c3ccc(C(=O)NS(=O)(=O)c4ccc(N[C@H](CCN5CCOCC5)CSc5ccccc5)c(S(=O)(=O)C(F)(F)F)c4)cc3)CC2)C1 [Navitoclax] (partner 0.5 µM)
Outline: as §1

Cell Line | relative viability ([1]; first compound 0.02 µM) | relative viability ([1]; first compound 0.06325 µM) | relative viability ([1]; first compound 0.2 µM) | relative viability ([1]; first compound 0.6325 µM) | relative viability ([1]; first compound 2 µM) | relative viability ([2]; first compound 0.001 µM) | relative viability ([2]; first compound 0.01 µM) | relative viability ([2]; first compound 0.03162 µM) | relative viability ([2]; first compound 0.1 µM) | relative viability ([3]; first compound 0.02 µM) | relative viability ([3]; first compound 0.06325 µM) | relative viability ([3]; first compound 0.2 µM) | relative viability ([3]; first compound 0.6325 µM) | relative viability ([3]; first compound 2 µM) | relative viability ([4]; first compound 0.001 µM) | relative viability ([4]; first compound 0.01 µM) | relative viability ([4]; first compound 0.03162 µM) | relative viability ([4]; first compound 0.1 µM)
PC-14 | 0.86 | 0.929 | 0.885 | 0.904 | 0.644 | 1.03 | 0.982 | 0.897 | 0.973 | 0.271 | 0.277 | 0.246 | 0.223 | 0.193 | 1 | 1.15 | 1.06 | 1.02
NCI-H1944 | – | – | 0.959 | 0.767 | 0.656 | 1.02 | 0.701 | 0.841 | 0.867 | 0.421 | 0.41 | 0.431 | 0.394 | 0.414 | 1.06 | 0.96 | 1.07 | 0.964
A-427 | – | 1.05 | 1.11 | 1.17 | 1.14 | 1.02 | 0.977 | 1.29 | 1.24 | 0.561 | 0.519 | 0.597 | 0.614 | 0.498 | 0.925 | 0.9 | 0.943 | 1
H3255 | 0.92 | 0.767 | 0.783 | 0.693 | 0.196 | 0.944 | 0.892 | 1.12 | 0.951 | – | 0.543 | 0.584 | 0.422 | 0.207 | 0.573 | 0.502 | 0.688 | 0.558
NCI-H23 | – | – | 0.508 | 0.588 | 0.462 | 0.952 | 0.97 | 0.967 | 1.02 | – | – | 0.315 | 0.353 | 0.323 | 0.723 | 0.775 | 1.04 | 0.805
NCI-H2087 | 0.97 | 0.887 | 1.01 | 1.06 | 0.818 | 1.1 | 0.979 | 0.947 | 1.01 | 0.26 | 0.164 | 0.251 | 0.228 | 0.234 | 1.03 | 0.981 | 1.01 | 0.93
SK-LU-1 | – | 0.783 | 1.19 | 1.01 | 1.24 | 0.791 | 0.796 | 0.87 | 0.792 | 0.709 | 0.558 | 0.686 | 0.609 | 0.618 | 0.893 | 0.832 | 1.02 | 0.893
NCI-H2347 | 0.963 | 0.97 | 1.01 | 0.929 | 0.926 | 0.625 | 1.13 | 0.985 | 1.08 | 0.573 | 0.514 | 0.642 | 0.605 | 0.599 | 0.897 | 0.846 | 1 | 0.748
NCI-H596 | 1.11 | 1.02 | 1.09 | 1.19 | 0.839 | 0.885 | 0.899 | 0.835 | 0.898 | – | 0.979 | 0.793 | 1.04 | 0.957 | 1.04 | 0.802 | 1.05 | 1.05
LU99A | 0.534 | 0.511 | 0.581 | 0.565 | 0.561 | 0.845 | 0.853 | 0.963 | 0.831 | 0.903 | 0.73 | 0.859 | 0.896 | 0.721 | 0.779 | 0.933 | 0.822 | 0.772
SW 1573 | 0.843 | 0.82 | 0.76 | 0.784 | 0.794 | 1.13 | 1.03 | 0.879 | 0.784 | 0.492 | 0.437 | 0.565 | 0.633 | 0.489 | 1.03 | 1.04 | 1.09 | 0.989
NCI-H1734 | – | 0.729 | 0.946 | 0.858 | 0.745 | 0.808 | 0.839 | 0.922 | 0.962 | – | 0.435 | 0.506 | 0.552 | 0.432 | 0.856 | 0.811 | 0.86 | 0.838
NCI-H2126 | – | 0.658 | 0.685 | 0.645 | 0.593 | 1.2 | 1.11 | 1.05 | 1.25 | 0.609 | 0.52 | 0.593 | 0.548 | 0.44 | 0.865 | 0.87 | 0.866 | 0.872
NCI-H838 | 1.08 | 0.913 | 1.03 | 1.04 | 0.874 | 1.04 | 0.961 | 1.08 | 1.03 | 0.475 | 0.453 | 0.495 | 0.484 | 0.44 | 1.24 | 1.18 | 1.18 | 1.16
A549 | – | 0.433 | 0.555 | 0.473 | 0.425 | 1.09 | 0.969 | 0.974 | 0.906 | – | 0.224 | 0.305 | 0.291 | 0.133 | 1.23 | 1.31 | 1.29 | 1.12
HCC-78 | – | 0.383 | 0.461 | 0.441 | 0.448 | 0.496 | 0.511 | 0.518 | 0.515 | – | 0.58 | 0.744 | 0.765 | 0.735 | 0.781 | 0.729 | 0.731 | 0.452
NCI-H460 | 0.736 | 0.776 | 0.843 | 0.573 | 0.674 | 1.03 | 0.966 | 1.02 | 0.94 | 0.429 | 0.488 | 0.542 | 0.435 | 0.461 | 0.968 | 1.18 | 1.11 | 1.04
NCI-H2023 | 0.594 | 0.519 | 0.474 | 0.512 | 0.366 | 1.1 | 0.788 | 1.01 | 0.667 | 0.22 | 0.229 | 0.224 | 0.235 | 0.223 | 1 | 0.993 | 1.03 | 0.944
